In ChEMBL document CHEMBL1201862, “PubChem BioAssay data set” (2004):
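Step 1: Grow cells in 96-well plates. Step 2: Expose to compound for 48 hours at 5 concentrations. Step 3: Interpolate endpoints linearly; if unreached, use highest concentration. GI50 is the concentration that inhibits growth by half.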 Active and inactive are the calls of the source. No stated cut-off is given here; in the data, active = GI50 up to about 1.1 µM and inactive = higher.

What was measured:
Test in all cases: NCI tumour cell line growth inhibition, 48 h
Hs-578T = tested on: Hs-578T
ACHN = tested on: ACHN
SNB-75 = tested on: SNB-75
SN12C = tested on: SN12C
LOX IMVI = tested on: LOX IMVI
XF498 = tested on: XF498
DU-145 = tested on: DU-145
MCF7 = tested on: MCF7
PC-3 = tested on: PC-3
M14 = tested on: M14
KM-20L2 = tested on: KM-20L2
MOLT-4 = tested on: MOLT-4
SF-268 = tested on: SF-268
MDA-MB-231 = tested on: MDA-MB-231
NCI/ADR-RES = tested on: NCI/ADR-RES
CCRF-CEM = tested on: CCRF-CEM
A498 = tested on: A498
HCT-116 = tested on: HCT-116
A549 = tested on: A549
CAKI-1 = tested on: CAKI-1
UACC-257 = tested on: UACC-257
NCI-H460 = tested on: NCI-H460
HOP-92 = tested on: HOP-92
DMS-114 = tested on: DMS-114
KM12 = tested on: KM12
NCI-H226 = tested on: NCI-H226
OVCAR-4 = tested on: OVCAR-4
HT-29 = tested on: HT-29
HCC 2998 = tested on: HCC 2998
SK-OV-3 = tested on: SK-OV-3
OVCAR-3 = tested on: OVCAR-3
786-0 = tested on: 786-0
SF-295 = tested on: SF-295
T47D = tested on: T47D
OVCAR-8 = tested on: OVCAR-8
M19-MEL = tested on: M19-MEL
UACC-62 = tested on: UACC-62
SK-MEL-5 = tested on: SK-MEL-5
NCI-H23 = tested on: NCI-H23
RXF 631 = tested on: RXF 631
K562 = tested on: K562
U-251 = tested on: U-251
HL-60 = tested on: HL-60
UO-31 = tested on: UO-31
SK-MEL-2 = tested on: SK-MEL-2
SW-620 = tested on: SW-620
SK-MEL-28 = tested on: SK-MEL-28
RPMI-8226 = tested on: RPMI-8226
DMS-273 = tested on: DMS-273
HOP-62 = tested on: HOP-62
MDA-N = tested on: MDA-N
OVCAR-5 = tested on: OVCAR-5
HCT-15 = tested on: HCT-15
Malme-3M = tested on: Malme-3M
TK-10 = tested on: TK-10
EKVX = tested on: EKVX
SR = tested on: SR
LXFL 529 = tested on: LXFL 529
NCI-H522 = tested on: NCI-H522
SF-539 = tested on: SF-539
IGROV-1 = tested on: IGROV-1
DLD-1 = tested on: DLD-1
MDA-MB-435 = tested on: MDA-MB-435
BT-549 = tested on: BT-549
SNB-19 = tested on: SNB-19
COLO 205 = tested on: COLO 205
SNB-78 = tested on: SNB-78

In the case of COC(=O)c1ccccc1OCc1cc(=O)oc2ccc(C)cc12, the GI50 (Hs-578T) is reported as 27.3 µM (inactive), the GI50 (ACHN) is reported as 63.2 µM (inactive) and the GI50 (SNB-75) is reported as 16.2 µM (inactive). The GI50 (SN12C) was > 100 µM (inactive), the GI50 (LOX IMVI) was > 69.2 µM (inactive) and the GI50 (XF498) was 31.8 µM (inactive). The GI50 (DU-145) was > 100 µM (inactive), the GI50 (MCF7) was 21.4 µM (inactive) and the GI50 (PC-3) was > 100 µM (inactive). For the same compound, the GI50 (M14) was > 87.7 µM (inactive), the GI50 (KM-20L2) was 82.2 µM (inactive) and the GI50 (MOLT-4) was > 100 µM (inactive). The GI50 (SF-268) was 29.1 µM (inactive), the GI50 (MDA-MB-231) was 84.9 µM (inactive) and the GI50 (NCI/ADR-RES) was 64.7 µM (inactive). For the same compound, the GI50 (CCRF-CEM) was > 100 µM (inactive), the GI50 (A498) was > 100 µM (inactive) and the GI50 (HCT-116) was 43.1 µM (inactive). For the same compound, the GI50 (A549) was 82.2 µM (inactive), the GI50 (CAKI-1) was 52.5 µM (inactive) and the GI50 (UACC-257) was > 87.3 µM (inactive). For the same compound, the GI50 (NCI-H460) was > 100 µM (inactive), the GI50 (HOP-92) was 24 µM (inactive) and the GI50 (DMS-114) was 89.3 µM (inactive). For the same compound, the GI50 (KM12) was > 100 µM (inactive), the GI50 (NCI-H226) was 90.4 µM (inactive) and the GI50 (OVCAR-4) was 20 µM (inactive). For the same compound, the GI50 (HT-29) was 49.5 µM (inactive), the GI50 (HCC 2998) was > 100 µM (inactive) and the GI50 (SK-OV-3) was 63.8 µM (inactive). The GI50 (OVCAR-3) was 29.4 µM (inactive), the GI50 (786-0) was 39.1 µM (inactive) and the GI50 (SF-295) was 28.2 µM (inactive). The GI50 (T47D) was 4.7 µM (inactive), the GI50 (OVCAR-8) was 39.3 µM (inactive) and the GI50 (M19-MEL) was > 100 µM (inactive). The GI50 (UACC-62) was > 39.2 µM (inactive), the GI50 (SK-MEL-5) was > 100 µM (inactive) and the GI50 (NCI-H23) was > 100 µM (inactive). For the same compound, the GI50 (RXF 631) was > 100 µM (inactive), the GI50 (K562) was > 100 µM (inactive) and the GI50 (U-251) was 14.4 µM (inactive). The GI50 (HL-60) was > 100 µM (inactive), the GI50 (UO-31) was > 100 µM (inactive) and the GI50 (SK-MEL-2) was > 42.6 µM (inactive). The GI50 (SW-620) was > 65.8 µM (inactive), the GI50 (SK-MEL-28) was > 100 µM (inactive) and the GI50 (RPMI-8226) was > 63.4 µM (inactive). For the same compound, the GI50 (DMS-273) was 71.3 µM (inactive), the GI50 (HOP-62) was 20 µM (inactive) and the GI50 (MDA-N) was > 100 µM (inactive). For the same compound, the GI50 (OVCAR-5) was > 100 µM (inactive), the GI50 (HCT-15) was > 100 µM and the GI50 (Malme-3M) was > 100 µM (inactive). For the same compound, the GI50 (TK-10) was 58.7 µM (inactive), the GI50 (EKVX) was > 100 µM (inactive) and the GI50 (SR) was > 100 µM (inactive). The GI50 (LXFL 529) was 85.7 µM (inactive), the GI50 (NCI-H522) was 14.8 µM (inactive) and the GI50 (SF-539) was 20.2 µM (inactive). For the same compound, the GI50 (IGROV-1) was 64.7 µM (inactive), the GI50 (DLD-1) was 67.1 µM (inactive) and the GI50 (MDA-MB-435) was > 100 µM (inactive). The GI50 (BT-549) was 18.1 µM (inactive), the GI50 (SNB-19) was 14.7 µM (inactive) and the GI50 (COLO 205) was > 100 µM (inactive).
With O=S1(=O)OCCOS(=O)(=O)C1(Cl)Cl the GI50 (SNB-75) was > 100 µM (inactive), the GI50 (SN12C) was > 100 µM (inactive) and the GI50 (LOX IMVI) was 61.4 µM (inactive). The GI50 (XF498) was > 100 µM (inactive), the GI50 (M14) was > 100 µM (inactive) and the GI50 (MOLT-4) was 42.2 µM (inactive). The GI50 (SF-268) was 43.5 µM (inactive), the GI50 (CCRF-CEM) was 54.2 µM (inactive) and the GI50 (A498) was > 100 µM (inactive). The GI50 (HCT-116) was > 100 µM (inactive), the GI50 (A549) was > 100 µM (inactive) and the GI50 (CAKI-1) was 47 µM (inactive). For the same compound, the GI50 (UACC-257) was > 100 µM (inactive), the GI50 (HOP-92) was 97.5 µM (inactive) and the GI50 (DMS-114) was > 100 µM (inactive). For the same compound, the GI50 (KM12) was > 100 µM (inactive), the GI50 (NCI-H226) was 41.1 µM (inactive) and the GI50 (OVCAR-4) was > 100 µM (inactive). The GI50 (HT-29) was > 100 µM (inactive), the GI50 (HCC 2998) was > 100 µM (inactive) and the GI50 (SK-OV-3) was > 100 µM (inactive). For the same compound, the GI50 (OVCAR-3) was > 100 µM (inactive), the GI50 (786-0) was 61.9 µM (inactive) and the GI50 (SF-295) was 46 µM (inactive). For the same compound, the GI50 (OVCAR-8) was > 100 µM (inactive), the GI50 (M19-MEL) was > 100 µM (inactive) and the GI50 (UACC-62) was 31.3 µM (inactive). The GI50 (SK-MEL-5) was 74.8 µM (inactive), the GI50 (NCI-H23) was > 100 µM (inactive) and the GI50 (RXF 631) was > 100 µM (inactive). The GI50 (K562) was > 100 µM (inactive), the GI50 (HL-60) was 42 µM (inactive) and the GI50 (UO-31) was 99.8 µM (inactive). The GI50 (SK-MEL-2) was > 100 µM (inactive), the GI50 (SW-620) was > 100 µM (inactive) and the GI50 (SK-MEL-28) was > 100 µM (inactive). For the same compound, the GI50 (RPMI-8226) was > 100 µM (inactive), the GI50 (DMS-273) was 53.1 µM (inactive) and the GI50 (HOP-62) was 64.9 µM (inactive). The GI50 (Malme-3M) was > 100 µM (inactive), the GI50 (TK-10) was > 100 µM (inactive) and the GI50 (EKVX) was > 100 µM (inactive). For the same compound, the GI50 (SR) was 35.6 µM (inactive), the GI50 (LXFL 529) was > 100 µM (inactive) and the GI50 (NCI-H522) was > 100 µM (inactive). The GI50 (SF-539) was > 100 µM (inactive), the GI50 (IGROV-1) was > 100 µM (inactive) and the GI50 (DLD-1) was > 100 µM (inactive). For the same compound, the GI50 (SNB-19) was 91.4 µM (inactive), the GI50 (COLO 205) was > 100 µM (inactive) and the GI50 (SNB-78) was > 100 µM (inactive).
